Experiments:
CYP2D6 = CYP2D6 (Homo sapiens, UniProt P10635); assay: CYP2D6 inhibition (fluorescent substrate AMMC); type: in vitro ADME; settings: read-out: Cyp IC50 2D6
Outline: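 Test compounds, 10-point 1:1 serial dilutions in NADPH-regenerating cofactor mix, were preincubated 10 min at 37° C before recombinant enzyme and fluorogenic substrate reactions at 37° C (CYP1A2 15 min; CYP2C9 45 min; CYP2C19, 2D6 30 min). Product fluorescence was read at 409 ex with 460 em (1A2, 2C19) or 530 em (2C9, 2D6), and IC50 fitted from signal versus concentration.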

BCR-NTRK1 BaF3 cells = target: T1, BCR-NTRK1 BaF3 cells (Homo sapiens, UniProt P04629); assay: BaF3 BCR-NTRK1 cell proliferation assay (ATPlite); type: cell-based; settings: read-out: Inhibition of Cell Proliferation IC50, BCR/BaF3 TrkA
T1 construct: fused on or other part: P11274 (Breakpoint cluster region protein)
T1 sequence (P04629 510-781): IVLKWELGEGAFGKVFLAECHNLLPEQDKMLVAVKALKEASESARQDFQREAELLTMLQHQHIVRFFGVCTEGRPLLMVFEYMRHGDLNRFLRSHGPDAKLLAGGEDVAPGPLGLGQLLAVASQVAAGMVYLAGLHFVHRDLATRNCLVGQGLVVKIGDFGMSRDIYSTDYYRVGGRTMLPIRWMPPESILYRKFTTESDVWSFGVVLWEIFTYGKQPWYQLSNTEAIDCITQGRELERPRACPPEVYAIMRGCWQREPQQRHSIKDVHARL
Outline: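 ATP-based luminescence (ATPlite), read after 10 min at room temperature, served as a proxy for cell number, and IC50 was fitted against compound concentration. Before that, cells were treated for 3 days with an 8-point 1:3 dilution series starting at 10 μM. BaF3 cells were plated at 10,000/well without IL-3, and MV-4-11 cells at 25,000/well.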

MV-4-11 cells = assay: MV-4-11 (leukemia) cell proliferation assay (ATPlite); type: cell-based; settings: Homo sapiens, MV4-11, read-out: Inhibition of Cell Proliferation IC50, MV-4-11
Protocol: Compounds are assessed in a variety of cell based assays. For example BaF3 cells engineered with any of BCR-FMS, BCR-KIT, BCR-FLT3, BCR-NTRK1, BCR-NTRK2, and BCR-NTRK3, are used in cell proliferation assays to assess inhibitory activity of Fms, Kit, Flt-3, TrkA, TrkB, and TrkC, respectively. An MV-4-11 (leukemia) cell proliferation assay is used to assess inhibitory activity in Flt-3, and SKNSH (human neuroblastoma) cell proliferation assay is used to assess efficacy of Fms/Trk inhibitors. Additional cells may be assayed similarly to assess the efficacy of Fms/Trk inhibitors, such as MiaPaCa (human pancreatic cancer) and Capan-1 (human pancreatic carcinoma) cells. Reagent and assay conditions are as follows: • BaF3 cells: • Maintained in RPMI containing 10% FBS, 1% PenStrep, 1% NEAA, and 1% L-Glutamine, supplemented with 1 mg/mL G418 and 5% WEHI-CM (or recombinant murine IL-3). • Confluent cells are split 1:50 to 1:100 every 3-4 days. • MV-4-11 cells: • Maintained in Iscove's Modified Dulbecco's Medium containing 10% FBS. • Confluent cells are split 1:4 every 3-4 days. • SKNSH cells: RPMI containing 10% FBS. On day 1, cells are counted, then centrifuged in a conical tube for 5 minutes at 1000 rpm. The supernatant is removed and cells are re-suspended as follows: • BaF3: resuspend in growth media +1 mg/mL G418 (without WEHFIL-3) to 2×10^5 cells/mL. • MV-4-11: resuspend in growth media to 5×10^5 cells/mL. • SKNSH: resuspend in growth media to 2×10^4 cells/mL. The cells are plated (50 μL, 150 μL for SKNSH cells) in each well of a 96-well dish (Corning 3610) and incubated at 37° C. in 5% CO2 overnight, cells plated to a final concentration of cells as follows: • BaF3: 10,000 cells per well. • MV-4-11: 25,000 cells per well. • SKNSH: 3,000 cells per well. On day 2, compound at a maximum concentration of 5 mM is serially diluted 1:3 for a total of 8 point titration with DMSO as a control. A 1 μL aliquot of each dilution point is added to 249 μL growth media and 50 μL is added to a well containing cells, providing 10 μM compound for the maximum concentration point. The cells are incubated for 3 days at 37° C. in 5% CO2. For SKNSH cells, a 0.75 μL aliquot of appropriate dilution in DMSO is added to 150 μL of cells. On day 5, ATPlite 1 step Luminescence Assay System (Perkin Elmer #6016739) is brought to room temperature along with the cell cultures. ATPlite is added to each well as follows: • BaF3: 25 μL per well. • MV-4-11: 40 μL per well. • SKNSH: 20 μL per well. The cells are incubated at room temperature for 10 minutes, then luminescence is read on Safire reader. The measured luminescence correlates directly with cell number, such that the reading as a function of compound concentration is used to determine the IC50 value.
It is understood that the results of these assays may vary as assay conditions are varied. Inhibition levels determined under the conditions described herein represent a relative activity for the compounds tested under the specific conditions employed. The cell based assays are likely to show variability due to the complexity of the system and the sensitivity thereof to any changes in the assay conditions. […] Results for compounds that are tested and show substantially no inhibition below the highest tested concentration are represented as “-” in the tables below. In some instances, the compounds were not tested in all of the assays, or assay results were not valid, as indicated by NA in the tables below.

Chain of CYP2D6 (P10635 whole entry): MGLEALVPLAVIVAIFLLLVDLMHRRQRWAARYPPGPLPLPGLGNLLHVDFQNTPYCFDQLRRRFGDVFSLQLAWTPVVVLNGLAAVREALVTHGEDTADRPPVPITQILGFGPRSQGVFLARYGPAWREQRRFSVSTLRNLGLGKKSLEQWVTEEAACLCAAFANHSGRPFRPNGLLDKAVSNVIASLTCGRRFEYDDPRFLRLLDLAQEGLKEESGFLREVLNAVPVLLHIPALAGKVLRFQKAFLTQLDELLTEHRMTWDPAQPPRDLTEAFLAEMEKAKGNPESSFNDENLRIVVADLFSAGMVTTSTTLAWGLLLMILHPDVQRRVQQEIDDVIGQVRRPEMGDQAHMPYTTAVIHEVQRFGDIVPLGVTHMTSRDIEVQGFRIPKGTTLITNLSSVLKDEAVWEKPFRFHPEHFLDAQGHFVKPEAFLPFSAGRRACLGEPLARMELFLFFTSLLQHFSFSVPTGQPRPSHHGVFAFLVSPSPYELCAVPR

Compound	IC50 (CYP2D6) [nM]	IC50 (BCR-NTRK1 BaF3 cells) [nM]	IC50 (MV-4-11 cells) [nM]
CCn1cc(Nc2ccc(Cc3c[nH]c4ncnc(OC)c34)c(F)n2)cn1 [Compound P-4011, (1-Ethyl-1H-pyrazol-4-yl)-[6-fluoro-5-(4-methoxy-7H-pyrrolo[2,3-d]pyrimidin-5-ylmethyl)-pyridin-2-yl]-amine]	> 10000	< 1000	< 1000
Cc1cnc2[nH]cc(Cc3cnc(Nc4ccc(C(F)(F)F)nc4)nc3)c2c1 [Compound P-3018, [5-(5-Methyl-1H-pyrrolo[2,3-b]pyridin-3-ylmethyl)-pyrimidin-2-yl]-(6-trifluoromethyl-pyridin-3-yl)-amine]	> 10000	< 1000	< 10
CCn1ccc(Nc2ncc(Cc3c[nH]c4ncc(C)cc34)cn2)n1 [Compound P-3035, (1-Ethyl-1H-pyrazol-3-yl)-[5-(5-methyl-1H-pyrrolo[2,3-b]pyridin-3-ylmethyl)-pyrimidin-2-yl]-amine]		< 1000	< 1000
CCOc1ccc(Nc2ccc(Cc3c[nH]c4ncc(C)cc34)c(F)n2)cn1 [Compound P-3039, (6-ethoxy-pyridin-3-yl)-[6-fluoro-5-(5-methyl-1H-pyrrolo[2,3-b]pyridin-3-ylmethyl)-pyridin-2-yl]-amine]	> 10000	< 1000	< 1000
COCCOc1ncnc2[nH]cc(Cc3ccc(Nc4ccc(C)nc4)nc3F)c12 [Compound P-4015, {6-Fluoro-5-[4-(2-methoxy-ethoxy)-7H-pyrrolo[2,3-d]pyrimidin-5-ylmethyl]-pyridin-2-yl}-(6-methyl-pyridin-3-yl)-amine]	> 10000	< 1000	< 1000
CCn1cc(Nc2ccc(Cc3c[nH]c4ncnc(C)c34)c(F)n2)cn1 [Compound P-4013, (1-Ethyl-1H-pyrazol-4-yl)-[6-fluoro-5-(4-methyl-7H-pyrrolo[2,3-d]pyrimidin-5-ylmethyl)-pyridin-2-yl]-amine]	> 10000	< 1000	< 1000
CCn1cc(Nc2ncc(Cc3c[nH]c4ncc(C)cc34)cn2)cn1 [Compound P-3036, (1-Ethyl-1H-pyrazol-4-yl)-[5-(5-methyl-1H-pyrrolo[2,3-b]pyridin-3-ylmethyl)-pyrimidin-2-yl]-amine]		< 1000	< 100
COc1ccc(Nc2ncc(Cc3c[nH]c4ncc(C)cc34)cn2)cc1F [Compound P-3023, (3-Fluoro-4-methoxy-phenyl)-[5-(5-methyl-1H-pyrrolo[2,3-b]pyridin-3-ylmethyl)-pyrimidin-2-yl]-amine]		< 1000	< 100
Cc1cnc2[nH]cc(Cc3cnc(Nc4cc(OC(C)C)n[nH]4)nc3)c2c1 [Compound P-3038, (5-Isopropoxy-2H-pyrazol-3-yl)-[5-(5-methyl-1H-pyrrolo[2,3-b]pyridin-3-ylmethyl)-pyrimidin-2-yl]-amine]		< 1000	> 1000
COc1cc(Nc2ncc(Cc3c[nH]c4ncc(C)cc34)cn2)ccc1F [Compound P-3022, (4-Fluoro-3-methoxy-phenyl)-[5-(5-methyl-1H-pyrrolo[2,3-b]pyridin-3-ylmethyl)-pyrimidin-2-yl]-amine]		< 1000	< 1000
Cc1ccc(Nc2ccc(Cc3c[nH]c4ncnc(C5CC5)c34)c(F)n2)cn1 [Compound P-4030, [5-(4-Cyclopropyl-7H-pyrrolo[2,3-d]pyrimidin-5-ylmethyl)-6-fluoro-pyridin-2-yl]-(6-methyl-pyridin-3-yl)-amine]	> 10000	< 1000	
COc1ccc(Nc2ccc(Cc3c[nH]c4ncnc(C5CC5)c34)c(F)n2)cn1 [Compound P-4023, [5-(4-cyclopropyl-7H-pyrrolo[2,3-d]pyrimidin-5-ylmethyl)-6-fluoro-pyridin-2-yl]-(6-methoxy-pyridin-3-yl)-amine]	5000 to 10000	< 100	

Other lines, results leading:

IC50 (CYP2D6) [nM]	IC50 (BCR-NTRK1 BaF3 cells) [nM]	IC50 (MV-4-11 cells) [nM]	Compound
	< 100	< 100	COc1ccc(Nc2ncc(Cc3c[nH]c4ncc(C)cc34)cn2)cn1 [Compound P-3020, (6-Methoxy-pyridin-3-yl)-[5-(5-methyl-1H-pyrrolo[2,3-b]pyridin-3-ylmethyl)-pyrimidin-2-yl]-amine]
> 10000	< 100	< 100	CCOc1ccc(Nc2ccc(Cc3c[nH]c4ncnc(OCCOC)c34)c(F)n2)cn1 [Compound P-4008, (6-Ethoxy-pyridin-3-yl)-{6-fluoro-5-[4-(2-methoxy-ethoxy)-7H-pyrrolo[2,3-d]pyrimidin-5-ylmethyl]-pyridin-2-yl}-amine]
> 10000	< 100	< 1000	COc1ccc(Nc2ccc(Cc3c[nH]c4ncc(C)cc34)c(F)n2)cn1 [Compound P-3019, [6-fluoro-5-(5-methyl-1H-pyrrolo[2,3-b]pyridin-3-ylmethyl)-pyridin-2-yl]-(6-methoxy-pyridin-3-yl)-amine]
> 10000	< 10	< 1000	CCc1ccc(Nc2ccc(Cc3c[nH]c4ncnc(OC)c34)c(F)n2)cn1 [Compound P-4007, (6-Ethyl-pyridin-3-yl)-[6-fluoro-5-(4-methoxy-7H-pyrrolo[2,3-d]pyrimidin-5-ylmethyl)-pyridin-2-yl]-amine]
> 10000	< 10	< 1000	COc1ncnc2[nH]cc(Cc3ccc(Nc4ccc(C5CC5)nc4)nc3F)c12 [Compound P-4004, (6-Cyclopropyl-pyridin-3-yl)-[6-fluoro-5-(4-methoxy-7H-pyrrolo[2,3-d]pyrimidin-5-ylmethyl)-pyridin-2-yl]-amine]
	< 100	< 10	CCOc1ccc(Nc2ncc(Cc3c[nH]c4ncc(C)cc34)cn2)cn1 [Compound P-3027, (6-Ethoxy-pyridin-3-yl)-[5-(5-methyl-1H-pyrrolo[2,3-b]pyridin-3-ylmethyl)-pyrimidin-2-yl]-amine]
> 10000	< 100		CCOc1ncnc2[nH]cc(C(=O)c3ccc(Nc4ccc(OC)nc4)nc3F)c12 [Compound P-4025, (4-Ethoxy-7H-pyrrolo[2,3-d]pyrimidin-5-yl)-[2-fluoro-6-(6-methoxy-pyridin-3-ylamino)-pyridin-3-yl]-methanone]
> 10000	< 10		CCc1ccc(Nc2ccc(C(=O)c3c[nH]c4ncc(C)cc34)c(F)n2)cn1 [Compound P-3049, [6-(6-Ethyl-pyridin-3-ylamino)-2-fluoro-pyridin-3-yl]-(5-methyl-1H-pyrrolo[2,3-b]pyridin-3-yl)-methanone]
> 10000	< 100		O=C(c1ccc(Nc2ccc(C3CC3)nc2)nc1F)c1c[nH]c2ncccc12 [Compound P-3052, [6-(6-Cyclopropyl-pyridin-3-ylamino)-2-fluoro-pyridin-3-yl]-(1H-pyrrolo[2,3-b]pyridin-3-yl)-methanone]
